Target: cAMP and cAMP-inhibited cGMP 3',5'-cyclic phosphodiesterase 10A (Homo sapiens, UniProt Q9Y233)
Test: PDE10A assay
Method in brief: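 Human PDE10A (2 ng/well) preincubated 15 min RT with compound in HEPES pH 7.5, 10 mM MgCl2, BSA, then reacted 15 min with 50 nM [3H]cGMP/cGMP substrate. Stopped with Y-Si SPA beads; bound radioactivity counted, IC50 from four-parameter logistic, pIC50 = −log10(IC50).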

Row | IC50 | SMILES
1 | 2670 nM | Cc1ncoc1C(=O)Nc1cc(-c2ccccn2)nn1C [Roche-Dataset for PDE10A, Compound 979]
2 | 28 nM | Cc1nc2cc(Cl)ccc2nc1OCc1nc(N2CCCC2)nn1C [Roche-Dataset for PDE10A, Compound 982]
3 | 1270 nM | Cc1ncc(C)n2nc(CCc3nc(N4CCCOCC4)nn3C)nc12 [Roche-Dataset for PDE10A, Compound 984]
4 | 4900 nM | CCCCc1cc(NC(=O)c2c(C(=O)N3CCC3)cnn2C)[nH]n1 [Roche-Dataset for PDE10A, Compound 985]
5 | 270 nM | Cc1nc(CCNC(=O)c2nc(C3CC3)ccc2Nc2cncnc2)n[nH]1 [Roche-Dataset for PDE10A, Compound 986]
6 | 5780 nM | O=C(NCC1CCOCC1)c1nc(C2CC2)cnc1Nc1cncnc1 [Roche-Dataset for PDE10A, Compound 988]
7 | 7900 nM | Cc1cncc(CCc2nc(N3CCCC3)nn2C)n1 [Roche-Dataset for PDE10A, Compound 989]
8 | 15 nM | O=C(Nc1conc1-c1ccccn1)c1nc(C2CC2)ccc1Nc1cncnc1 [Roche-Dataset for PDE10A, Compound 990]
9 | 3720 nM | Cc1nc2ccc(NC(=O)c3c(C(=O)N4CCC4)cnn3C)cn2n1 [Roche-Dataset for PDE10A, Compound 1007]
10 | 49 nM | COc1cccc(NC(=O)c2nc(C3CC3)cnc2Nc2cncnc2)n1 [Roche-Dataset for PDE10A, Compound 1011]
11 | 10000 nM | O=C(c1nc(C2CC2)cnc1Nc1cncnc1)N1CCN(CCc2ccccc2)CC1 [Roche-Dataset for PDE10A, Compound 1015]
12 | 768 nM | O=C(NCc1ccncn1)c1nc(C2CC2)cnc1Nc1cncnc1 [Roche-Dataset for PDE10A, Compound 1017]
13 | 65 nM | Cc1nc2ccccc2nc1OCc1csc(N2CCCC2)n1 [Roche-Dataset for PDE10A, Compound 1025]
14 | 890 nM | O=C(NCc1cncs1)c1nc(C2CC2)cnc1Nc1cncnc1 [Roche-Dataset for PDE10A, Compound 1028]
15 | 10000 nM | O=C(NC1CCS(=O)(=O)CC1)c1nc(C2CC2)cnc1Nc1cncnc1 [Roche-Dataset for PDE10A, Compound 1031]
16 | 104 nM | Cn1nccc1NC(=O)c1nc(C2CC2)ccc1Nc1cncnc1 [Roche-Dataset for PDE10A, Compound 1033]
17 | 4330 nM | Cn1ncc(NC(=O)c2c(C(=O)N3CCC3)cnn2C)c1C(=O)N1CCCCC1 [Roche-Dataset for PDE10A, Compound 1035]

The remaining lines, values behind:

Row | SMILES | IC50
18 | CC(C)(C)CC(C)(C)NC(=O)c1nc(C2CC2)cnc1Nc1cncnc1 [Roche-Dataset for PDE10A, Compound 976] | 826 nM
19 | COc1ccc(Cn2ccc(NC(=O)c3c(C(=O)N4CCC4)cnn3C)n2)cc1 [Roche-Dataset for PDE10A, Compound 977] | 79 nM
20 | Cn1ncc(C(=O)N2CCC2)c1C(=O)Nc1ccn(Cc2ccncc2)n1 [Roche-Dataset for PDE10A, Compound 978] | 192 nM
21 | Cc1c(Cl)cc(Cl)c2nc(CCc3ccn(C)n3)nn12 [Roche-Dataset for PDE10A, Compound 980] | 309 nM
22 | COc1ccc2c(=O)n(C)c3c(C)nc(-c4cccc(Cl)c4)n3c2c1 [Roche-Dataset for PDE10A, Compound 981] | 71 nM
23 | Cc1nc(-c2ccccc2Cl)n2c3cc(Cl)ccc3c(=O)n(C)c12 [Roche-Dataset for PDE10A, Compound 987] | 6.54 nM
24 | Cn1ncc(C(=O)N2CCC2)c1C(=O)Nc1cc(C2CCCCC2)n[nH]1 [Roche-Dataset for PDE10A, Compound 991] | 9440 nM
25 | CC(=O)N1CCC(NC(=O)c2nc(C3CC3)cnc2Nc2cncnc2)CC1 [Roche-Dataset for PDE10A, Compound 993] | 10000 nM
26 | Cc1ncn(-c2ccccc2)c1C(=O)Nc1cc(-c2ccccn2)nn1C [Roche-Dataset for PDE10A, Compound 994] | 2150 nM
27 | O=C(Nc1cnccc1Cl)c1nc(C2CC2)ccc1Nc1cncnc1 [Roche-Dataset for PDE10A, Compound 995] | 21 nM
28 | Cc1c(Cl)cc(Cl)c2nc(CCc3nccs3)nn12 [Roche-Dataset for PDE10A, Compound 996] | 511 nM
29 | CNC(=O)[C@H]1CCC[C@@H]1NC(=O)c1nc(C2CC2)cnc1Nc1cncnc1 [Roche-Dataset for PDE10A, Compound 1000] | 696 nM
30 | O=C(Nc1cn(-c2ccccn2)cn1)c1nc(C2CC2)ccc1Br [Roche-Dataset for PDE10A, Compound 1003] | 434 nM
31 | O=C(Nc1ccnn1S(=O)(=O)C(F)(F)F)c1nc(C2CC2)ccc1Nc1cncnc1 [Roche-Dataset for PDE10A, Compound 1004] | 30 nM
32 | CN(C)C(=O)c1cc(NC(=O)c2nc(C3CC3)ccc2Nc2cncnc2)nn1C [Roche-Dataset for PDE10A, Compound 1005] | 675 nM
33 | CC(C)(NC(=O)c1nc(C2CC2)cnc1Nc1cncnc1)c1nnc(-c2cccnc2)o1 [Roche-Dataset for PDE10A, Compound 1006] | 1440 nM

Row | SMILES | IC50
34 | O=C(c1nc(C2CC2)cnc1Nc1cncnc1)N1CCN(Cc2ccccc2)CC1 [Roche-Dataset for PDE10A, Compound 1008] | 371 nM
35 | Cn1ncc(C(=O)N2CCOCC2)c1C(=O)N[C@H]1CCn2cc(-c3ccccc3Cl)nc2C1 [Roche-Dataset for PDE10A, Compound 1009] | 436 nM
36 | COCC1(CNC(=O)c2nc(C3CC3)cnc2Nc2cncnc2)CC1 [Roche-Dataset for PDE10A, Compound 1010] | 1790 nM
37 | CC(C)n1nc(NC(=O)c2nc(C3CC3)ccc2Nc2cncnc2)cc1C(=O)N(C)C [Roche-Dataset for PDE10A, Compound 1013] | 793 nM
38 | CC(=O)c1nn(C)cc1NC(=O)c1nc(C2CC2)cnc1Nc1cncnc1 [Roche-Dataset for PDE10A, Compound 1016] | 49 nM
39 | CNC(=O)c1cc(NC(=O)c2c(C(=O)N3CCC3)cnn2C)nn1C [Roche-Dataset for PDE10A, Compound 1021] | 10000 nM
40 | CC(C)(C)CCNC(=O)c1nc(C2CC2)cnc1Nc1cncnc1 [Roche-Dataset for PDE10A, Compound 1022] | 2340 nM
41 | Cn1ncc(C(=O)N2CCC2)c1C(=O)Nc1ccnn1-c1ccccn1 [Roche-Dataset for PDE10A, Compound 1024] | 130 nM
42 | CNC(=O)c1cccc(NC(=O)c2nc(C3CC3)cnc2Nc2cncnc2)n1 [Roche-Dataset for PDE10A, Compound 1026] | 170 nM
43 | COCCCNC(=O)c1nc(C2CC2)cnc1Nc1cncnc1 [Roche-Dataset for PDE10A, Compound 1027] | 944 nM
44 | Cn1cc(C(=O)Nc2ccn3cc(-c4ccccc4)nc3n2)c(C(=O)NCc2ccccn2)n1 [Roche-Dataset for PDE10A, Compound 1029] | 397 nM
45 | Cn1ncc(C(=O)N2CCC2)c1C(=O)Nc1ccn(CCN2CCOCC2)n1 [Roche-Dataset for PDE10A, Compound 1030] | 368 nM
46 | Cn1ncc(C(=O)N2CCC2)c1C(=O)Nc1nnc(-c2ccccn2)o1 [Roche-Dataset for PDE10A, Compound 1032] | 10000 nM
47 | Cn1ncc(C(=O)N2CCC2)c1C(=O)Nc1ccn(-c2ccc(Cl)cc2Cl)n1 [Roche-Dataset for PDE10A, Compound 1034] | 1060 nM
48 | O=C(Nc1cn(Cc2ccccn2)cn1)c1nc(C2CC2)ccc1Nc1cncnc1 [Roche-Dataset for PDE10A, Compound 1036] | 110 nM

Reference: BindingDB's records for doi:10.1007/s10822-022-00478-x (Roche Innovation Center Basel, F. Hoffmann-La Roche Ltd., 2022)
